Measurements: patent US20090280062A1, “LONGEVITY-PROMOTING EFFECTS OF ACETIC ACID AND REISHI POLYSACCHARIDE” (priority 2008, published 2009)

Columns and labels:
[1] = test system: RAB-1 and PMK-1 (MAPK pathway); test: RT-PCR of RAB-1 and PMK-1 transcripts (MAPK pathway) in C. elegans; settings: in vivo transcription after treatment; RF3 100 ppm, 2 days
Experimental: (§1) RNA preparation and reverse transcriptase-PCR(RT-PCR). Total RNA from batches of C. elegans were isolated from samples in the NGM medium at appropriate time intervals using an RNeasy mini kit (Qiagen). Subsequently, RNA (500 ng) from each sample was reverse-transcribed and PCR was performed using a Superscript One-step RT-PCR kit (Invitrogen). […] PCR products were run on 1.8% agarose gel and stained with 0.4 μg/ml ethidium bromide. Stained bands were visualized under UV light and photographed with a camera (Nikon […]).

[2] = test system: wild-type C. elegans (N2); test: Lifespan analysis of C. elegans after treatment with test substances; type: in vivo; settings: acetic acid and vitamins 50 ppm, RF3 and mushroom polysaccharide fractions 100 ppm (FIG. 1); 20° C.; versus water control
Text: Strains, bacteria, natural products and chemicals. The wild-type N2 strain of C. elegans were used in all experiments. The worms were maintained and cultured on nematode growth medium (NGM) agar plates or in liquid medium with E. coli OP50 as a food source. […] Contaminating food and worm debris were removed by sucrose floatation. In addition to OP50, two E. coli strains for RNAi were used (III-1N20 for TIR-1 RNAi and I-5M24 for DAF-16 RNAi). RF3, crude mycelium-powders of A. camphorate and H. erinaceus were prepared as described in previous papers. Each solution was diluted with deionized water to make test solutions of desired concentrations for various assays. Lifespan analysis after treatment with various substances.

DAF-16 = test: Semi-quantitative RT-PCR of DAF-16 transcripts in C. elegans; type: in vivo; settings: day 2 after treatment; acetic acid 50 ppm, extracts 100 ppm; normalised to ACT-1
Experimental: as §1

SMILES: CC(=O)O [Acetic acid, acetic acid]
- MAPK pathway activation (RAB-1 and PMK-1 transcription levels) [1]: apparently not involved
- lifespan-extending effect on C. elegans [2]: showed lifespan-extending effect
- DAF-16 expression (DAF-16): significant increase
